The source of these data is paper PMC8877061, “Antifungal and Antibiofilm Activity of Cyclic Temporin L Peptide Analogues against Albicans and Non-Albicans Candida Species” (Pharmaceutics, 2022).

Read-outs that look alike come from different tables or passages of the source. Positions of bridges follow the written chain, without caps; N, C: chain ends. Non-standard residues stand in square brackets, D forms with d. Residues, ends and D or L forms follow the SMILES beside them. Triazole bridges read from a SMILES are 1,4-linked. Lys(N3) = [N-]=[N+]=NCCCC[C@H](N)C(=O)O; Pra = C#CC[C@H](N)C(=O)O

Series [1] in a line: Circular dichroism in liposomes mimicking eukaryotic membranes. It counts as physicochemical. As to conditions: SUVs DOPC:Chol 70:30, peptide 80 μM; for helical content: CD, phosphate buffer 5 mM pH 7.4, 25 °C, from [θ]222. As to the method:
The circular dichroism spectra of the selected peptides (3, 7, 15 and 16) were recorded in small unilamellar vesicles (SUVs) composed of PE/PC/PI/Ergosterol (5:4:1:2, w/w/w/w, final lipid concentration = 0.01 mM) and DOPC/Chol (70:30, ratio in moles, final lipid concentration = 0.1 mM), between 190 and 260 nm on a JASCO J-710 CD spectropolarimeter at 25 °C using quartz cells with a 0.1-cm path length. The SUVs were prepared as reported in the following protocol. Once the lipid films were prepared as described above, they were hydrated with a phosphate buffer (5 mM, pH 7.4) (DOPC:Chol) or water (PE/PC/PI/Ergosterol) for 1 h and sonicated for 40 min. The peptides were dissolved in water to form a sample with a concentration of 80 μM in SUVs made of DOPC/Chol, while a peptide concentration of 10 μM was used in SUVs made of PE/PC/PI/Ergosterol. We accumulated the data three times, and all spectral data were subtracted from the background. Each spectrum converted the signal to the mean molar ellipticity, and we calculated the ratio of the ellipticities at 222 and 208 nm to discriminate between the monomeric and oligomeric states of the helices. The helix content was calculated as follows: [θ]222/(−40,000[1 − 2.5/n)], where [θ]222 is the ellipticity measurement at 222 nm and n is the number of amino acid residues.

Series [2] has as its system G. mellonella larvae infected by different Candida species. In words: G. mellonella fungal infection model (Kaplan-Meier survival). It counts as in vivo. As to conditions: for in vivo effectiveness on infected G. mellonella larvae: 10^6 yeast cells with 12.5 μM peptide, 10 μL injected, 37 °C, different Candida species. As to the method: The G. mellonella fungal infection model was performed as described previously. We first determined the lethal concentrations of C. albicans, C. auris, C. glabrata, C. tropicalis and C. parapsilosis inocula by injecting concentrations of 10^4, 10^5 or 10^6 cells/larvae. The larvae were kept in Petri dishes at 37 °C, and survival was monitored for 3 d. A system of scoring already proposed by Loh et al. based on survival, mobility, degree of melanization, and the ability to produce a cocoon was used to evaluate the physical state of the larvae for 3 days. To evaluate the effects of the five peptides on Candida infection and compare mortality, 10 μL of 10^6 yeast cells in a medium containing 12.5 μM of each peptide’s concentrations was injected into the last left proleg of the larvae and incubated at 37 °C. The larvae were incubated at 37 °C and monitored daily for survival.

The test system of the next series is C. glabrata DSM 11226. It counts as cell-based. As to the method: (§1) C. albicans ATCC 90028, C. auris DSM 21092, C. glabrata DSM 11226, C. tropicalis DSM11951 and C. parapsilosis DSM 4874 grown on YPD Agar (1% w/v yeast extract, 2% w/v peptone, 2% w/v glucose, 1.5% Agar) were cultured in Tryptone soya broth supplemented with 0.1% glucose for 16–18 h at 37 °C, washed twice using sterile phosphate-buffered saline (PBS) and standardized to […] as required for the experiments. RPMI1640 medium (Thermo Fisher Scientific, Waltham, MA, USA) buffered to a pH of 7.0 with 0.165 M MOPS was used for growing the biofilms of all Candida species.
(§2) The antifungal activity of peptides against all five Candida species was determined according to CLSI-M27-A3 [33], as reported previously. Briefly, the compounds were tested at concentrations ranging from […] to 50 μM, and the organism suspensions were adjusted to an inoculum of 10^6 cell/mL at OD 590 nm in RPMI 1640, added to the 96-well plate and incubated at 37 °C for 24 h. The minimum inhibitory concentration (MIC) values were determined as the lowest concentration inhibiting fungal growth at 590 nm using a microplate reader (Synergy™ H4; BioTek Instruments, Inc., Winooski, VT, USA). […] The MFC was the lowest concentration that yielded no colony growth on the agar. The MFC/MIC ratio was calculated to determine whether the substance had fungistatic (MFC/MIC ≥ 4) or fungicidal (MFC/MIC < 4) activity.

The test system of a further series is C. auris DSM 21092. It counts as cell-based. As to conditions: DSM 21092, 24 h. As to the method:
as §1, §2

The next series has as its system C. tropicalis DSM 11951. It counts as cell-based. Here is the method: as §1, §2
The subject of a further series is C. albicans ATCC 90028. It counts as cell-based. As to conditions: ATCC 90028, 24 h. Here is the method:
as §1, §2

Series [3] can be described thus: Peptide aggregation imaged by AFM on mica. It counts as physicochemical. The source says: XE-100 Atomic Force Microscopy (AFM) (by Park Systems, Suwon, Korea) was used for the imaging of the most promising peptide (3) with and without liposome interaction. Surface imaging was obtained in non-contact mode using SSS-NCHR 10 M (by Park Systems) Si/Al-coated cantilever with a sharp tip (typical tip radius: 2 nm, <5 nm max), a resonance frequency between 200 and 400 kHz and a nominal force constant of 42 N/m. […] The AFM images were processed and analyzed by the home software (XEI by Park Systems). The images were flattened to remove the background slope and adjusted in terms of contrast and brightness. For the sample preparation for AFM, the AFM imaging was performed on a substrate of a Muscovite mica surface (of about 1 cm^2 in area) that owned a root mean square (rms) surface roughness of less than 0.5 nm on a 1000 × 1000 nm^2 area. The 3-µL aliquots of the sample solutions were casted on mica immediately after cleavage with adhesive tape to establish their cleanliness and charge activity. In fact, after the cleavage, the K^+ ions bonding the mica layers were highly mobile, resulting in a positive overcharging of the mica surface, which enabled the deposition of molecules that held a […]. After 2 min, every sample was gently washed with deionized water to remove the sample excesses and then dried at room temperature under a ventilated fume hood.

Another series deals with G. mellonella larvae. As to conditions: in vivo. As to the method:
Twenty larvae with an average weight of 180–200 mg were used in each group in all assays with 2 control groups; one group was inoculated with PBS, while the other group received no injection as a control to evaluate general viability. A volume of 10 µL of each peptide at different concentrations (12.5, 25.0, and 50.0 µM) was inoculated in each group. All larvae were incubated at 37 °C and monitored daily for survival for 4 days in 3 independent experiments.

[4] abbreviates: CLSI-M27-A3, RPMI 1640, 10^6 cell/mL, 37 °C, 24 h, read at 590 nm.
Setting [5] is: absence of liposomes, peptide 50 μM.

As to `CC(C)C[C@H](NC(=O)[C@@H]1CCCCn2cc(nn2)C[C@H](NC(=O)[C@H](CCCCN)NC(=O)[C@H](CO)NC(=O)[C@H](Cc2ccccc2)NC(=O)[C@H](Cc2c[nH]c3ccccc23)NC(=O)[C@@H]2CCCN2C(=O)[C@@H](NC(=O)[C@@H](N)Cc2ccccc2)C(C)C)C(=O)N[C@H](CC(C)C)C(=O)NCC(=O)N[C@@H](CCCNC(=N)N)C(=O)N1)C(N)=O` [compound 7] (H-FVPWFSK[Pra][dL]GR[Lys(N3)]L-NH2; triazole 8-12; N-terminus assumed), the helical content in series [1] is given as ~ 23%. Moreover, the “in vivo effectiveness on infected G. mellonella larvae” value in series [2] is given as “in vivo effectiveness”. For the same molecule, in the series on C. glabrata DSM 11226 (DSM 11226, 24 h), the “MFC, C. glabrata DSM 11226” value is listed as 50 µM and the “MIC, C. glabrata DSM 11226” value amounted to 50 µM. In addition, in the series on C. auris DSM 21092, the “MFC, C. auris DSM 21092” value is on record as more than 50 µM and the “MIC, C. auris DSM 21092” value is reported as 50 µM. For the same molecule, in the series with C. tropicalis DSM 11951 (DSM 11951, 24 h), the “MFC, C. tropicalis DSM 11951” value is given as 50 µM and the “MIC, C. tropicalis DSM 11951” value is 50 µM.

`CC[C@H](C)[C@H](NC(=O)[C@H](CCCNC(=N)N)NC(=O)[C@@H]1CSSC[C@H](NC(=O)[C@H](Cc2ccccc2)NC(=O)[C@H](Cc2c[nH]c3ccccc23)NC(=O)[C@@H]2CCCN2C(=O)[C@@H](NC(=O)[C@@H](N)Cc2ccccc2)C(C)C)C(=O)N[C@@H](CCCCN)C(=O)N[C@@H](Cc2ccccc2)C(=O)N[C@H](CC(C)C)C(=O)N1)C(=O)N[C@@H](CC(C)C)C(N)=O` [compound 16] (H-FVPWFCKF[dL]CRIL-NH2; disulfide 6-10; N-terminus assumed): the “conformation by CD in DOPC:Chol liposomes” value in series [1] (25 °C) is given as “random coil conformation”. In series [2], the “in vivo effectiveness on infected G. mellonella larvae” value is “in vivo effectiveness”. Also, the “MIC, C. glabrata DSM 11226” value in the series with C. glabrata DSM 11226 (setting [4]) came out at 25 µM. Further, the “MFC, C. glabrata DSM 11226” value in the series on C. glabrata DSM 11226 (DSM 11226, 24 h) is listed as 50 µM. Besides, in the series with C. auris DSM 21092, the “MFC, C. auris DSM 21092” value is more than 50 µM and the “MIC, C. auris DSM 21092” value came out at 50 µM. Besides, the “MIC, C. tropicalis DSM 11951” value in the series with C. tropicalis DSM 11951 (setting [4]) is 25 µM. For the same molecule, the “MFC, C. tropicalis DSM 11951” value in the series with C. tropicalis DSM 11951 (DSM 11951, 24 h) stood at 50 µM. Also, the “MFC, C. albicans ATCC 90028” value in the series with C. albicans ATCC 90028 is reported as more than 50 µM.

As to `CC[C@H](C)[C@H](NC(=O)[C@H](CCCNC(=N)N)NC(=O)[C@@H]1CCC(=O)NCCCC[C@H](NC(=O)[C@H](Cc2ccccc2)NC(=O)[C@H](Cc2c[nH]c3ccccc23)NC(=O)[C@@H]2CCCN2C(=O)[C@@H](NC(=O)[C@@H](N)Cc2ccccc2)C(C)C)C(=O)N[C@@H](CCCCN)C(=O)N[C@@H](Cc2ccccc2)C(=O)N[C@H](CC(C)C)C(=O)N1)C(=O)N[C@@H](CC(C)C)C(N)=O` [compound 3] (H-FVPWFKKF[dL]ERIL-NH2; lactam 6-10; N-terminus assumed), the helical content in series [1] was ~ 13%. Besides, the “survival rate of infected larvae” value in series [2] (12.5 μM, larvae infected by all strains, after 48 h) was “increased the survival rate”. For the same molecule, the “in vivo effectiveness on infected G. mellonella larvae” value in series [2] is “in vivo effectiveness”. For the same molecule, in the series on C. glabrata DSM 11226 (DSM 11226, 24 h), the “MFC, C. glabrata DSM 11226” value is recorded as 50 µM and the “MIC, C. glabrata DSM 11226” value was found to be 50 µM. In addition, in the series on C. auris DSM 21092, the “MFC, C. auris DSM 21092” value came to 50 µM and the “MIC, C. auris DSM 21092” value is 50 µM. Also, in the series on C. tropicalis DSM 11951 (DSM 11951, 24 h), the “MFC, C. tropicalis DSM 11951” value came to 50 µM and the “MIC, C. tropicalis DSM 11951” value was found to be 50 µM. Further, in series [3] (setting [5]), the “height of aggregates (clusters) on mica by AFM” value is recorded as not above 20 nm and the “width of aggregates (clusters) on mica by AFM” value was “up to 300 nm”. The “thickness of peptide layer on mica by AFM, presence of liposomes” value in series [3] (after interaction with liposomes mimicking fungal membranes) is recorded as 4 nm.

In the case of `CC[C@H](C)[C@H](NC(=O)[C@H](CCCNC(=N)N)NC(=O)[C@@H]1CCCCNC(=O)CC[C@H](NC(=O)[C@H](Cc2ccccc2)NC(=O)[C@H](Cc2c[nH]c3ccccc23)NC(=O)[C@@H]2CCCN2C(=O)[C@@H](NC(=O)[C@@H](N)Cc2ccccc2)C(C)C)C(=O)N[C@@H](CCCCN)C(=O)N[C@@H](Cc2ccccc2)C(=O)N[C@H](CC(C)C)C(=O)N1)C(=O)N[C@@H](CC(C)C)C(N)=O` [compound 15] (H-FVPWFEKF[dL]KRIL-NH2; lactam 6-10; N-terminus assumed), the helical content in series [1] is listed as ~ 48%. In addition, in series [1] (>1 = helical aggregates), the “ratio of the ellipticities at 222 and 208 nm” value is listed as “greater than 1”. For the same molecule, in the series on G. mellonella larvae, the “toxicity in G. mellonella larvae at 50 μM” value is recorded as “greater toxicity”. In series [2], the “in vivo effectiveness on infected G. mellonella larvae” value was “in vivo effectiveness”. For the same molecule, in the series with C. glabrata DSM 11226 (DSM 11226, 24 h), the “MFC, C. glabrata DSM 11226” value is recorded as more than 50 µM and the “MIC, C. glabrata DSM 11226” value stood at 50 µM. Further, in the series with C. auris DSM 21092, the “MFC, C. auris DSM 21092” value was more than 50 µM and the “MIC, C. auris DSM 21092” value was determined as 50 µM. Besides, in the series on C. tropicalis DSM 11951 (DSM 11951, 24 h), the “MFC, C. tropicalis DSM 11951” value is listed as more than 50 µM and the “MIC, C. tropicalis DSM 11951” value is 50 µM. In addition, the “MFC, C. albicans ATCC 90028” value in the series with C. albicans ATCC 90028 is listed as more than 50 µM.
